In US12263175B2, “Optimised dosage of diaminophenothiazines in populations” (WisTa Laboratories Ltd., priority 2018, dated 2025):

Test: Treatment-emergent adverse events, three Phase 3 double-blind studies, LMTM pooled safety population
Type: in vivo, human
Source text: Three Phase 3, double-blind, controlled studies of LMTM have been completed (one each in subjects with mild and mild to moderate AD and one in subjects with bvFTD). Results of the AD studies have been published (Gauthier et al., 2016; Wilcock et al., 2018).
In these three studies, 1897 subjects received at least one dose of LMTM (Safety Population [Five additional subjects with AD, participating at one site in Study TRx-237-005, received a dose of study drug but were excluded from all analyses due to GCP violations], 1679 subjects with AD and 218 subjects with bvFTD). Of these, 860 subjects received the control (LMTM 8 mg/day, 750 with AD and 110 with bvFTD) and 1037 subjects received at least one dose of LMTM in the higher doses of 150 to 250 mg/day (929 with AD and 108 with bvFTD).
The incidence of the most common TEAEs are summarised by dose in the following Table EX1. This includes TEAEs that occurred at an incidence of ≥2.0% either in subjects randomised to LMTM 8 mg/day or higher doses (150 to 250 mg/day). The subset of TEAEs that were severe in intensity are also included.
The TEAEs are further analysed by using groupings of related MedDRA (Medical Dictionary for Regulatory Activities) preferred terms to better estimate the incidence of potentially treatment related adverse events. The incidence of all groupings for subjects categorised by dose (8 mg/day versus higher doses of 150 to 250 mg/day) is shown in the following Table EX2: […]

[1] = LMTM 8 mg/day (N = 860), Severe Intensity
[2] = subjects treated with LMTM 8 mg/day

CN(C)c1ccc2c(c1)Sc1cc(N(C)C)ccc1N2 [LMTM, leuco-methylthioninium bis(hydromethanesulfonate)]
Grouped TEAE incidence: Behavioral Symptoms (LMTM 8 mg/day (N = 860)): 114 (13.3%) n (%) | Grouped TEAE incidence: Falls and Related Terms (LMTM 8 mg/day (N = 860)): 188 (21.9%) n (%) | Grouped TEAE incidence: Hepatic Function Impairment (LMTM 8 mg/day (N = 860)): 13 (1.5%) n (%) | Grouped TEAE incidence: Hypersensitivity (LMTM 8 mg/day (N = 860)): 42 (4.9%) n (%) | Grouped TEAE incidence: Ischaemic Events, Inclusive of Myocardial Infarction (LMTM 8 mg/day (N = 860)): 20 (2.3%) n (%) | Grouped TEAE incidence: Psychotic Symptoms (LMTM 8 mg/day (N = 860)): 28 (3.3%) n (%) | Grouped TEAE incidence: Renal Function Impairment (LMTM 8 mg/day (N = 860)): 29 (3.4%) n (%) | Grouped TEAE incidence: Renal and Urinary Disorders (Including Infections) (LMTM 8 mg/day (N = 860)): 135 (15.7%) n (%) | Grouped TEAE incidence: Sleep Disorders (LMTM 8 mg/day (N = 860)): 41 (4.8%) n (%) | Grouped TEAE incidence: Targeted Gastrointestinal Events (LMTM 8 mg/day (N = 860)): 183 (21.3%) n (%) | No. (%) of Subjects Reporting at Least One TEAE (LMTM 8 mg/day (N = 860), All): 720 (83.7%) n (%) | TEAE incidence: Abdominal pain (LMTM 8 mg/day (N = 860), All): 16 (1.9%) n (%) | TEAE incidence: Abdominal pain upper (LMTM 8 mg/day (N = 860), All): 10 (1.2%) n (%) | TEAE incidence: Agitation (LMTM 8 mg/day (N = 860), All): 46 (5.3%) n (%) | TEAE incidence: Anaemia (LMTM 8 mg/day (N = 860), All): 19 (2.2%) n (%) | TEAE incidence: Anxiety (LMTM 8 mg/day (N = 860), All): 52 (6.0%) n (%) | TEAE incidence: Arthralgia (LMTM 8 mg/day (N = 860), All): 28 (3.3%) n (%) | TEAE incidence: Atrial fibrillation (LMTM 8 mg/day (N = 860), All): 17 (2.0%) n (%) | TEAE incidence: Back pain (LMTM 8 mg/day (N = 860), All): 31 (3.6%) n (%) | TEAE incidence: Blood creatine phosphokinase increased (LMTM 8 mg/day (N = 860), All): 18 (2.1%) n (%) | TEAE incidence: Blood folate decreased (LMTM 8 mg/day (N = 860), All): 45 (5.2%) n (%) | TEAE incidence: Bronchitis (LMTM 8 mg/day (N = 860), All): 27 (3.1%) n (%) | TEAE incidence: Cerebral microhaemorrhage (LMTM 8 mg/day (N = 860), All): 24 (2.8%) n (%) | TEAE incidence: Confusional state (LMTM 8 mg/day (N = 860), All): 22 (2.6%) n (%) | TEAE incidence: Constipation (LMTM 8 mg/day (N = 860), All): 23 (2.7%) n (%) | TEAE incidence: Contusion (LMTM 8 mg/day (N = 860), All): 24 (2.8%) n (%) | TEAE incidence: Cough (LMTM 8 mg/day (N = 860), All): 37 (4.3%) n (%) | TEAE incidence: Decreased appetite (LMTM 8 mg/day (N = 860), All): 13 (1.5%) n (%) | TEAE incidence: Dehydration (LMTM 8 mg/day (N = 860), All): 17 (2.0%) n (%) | TEAE incidence: Depression (LMTM 8 mg/day (N = 860), All): 41 (4.8%) n (%) | TEAE incidence: Diarrhoea (LMTM 8 mg/day (N = 860), All): 109 (12.7%) n (%) | TEAE incidence: Dizziness (LMTM 8 mg/day (N = 860), All): 49 (5.7%) n (%) | TEAE incidence: Dysuria (LMTM 8 mg/day (N = 860), All): 6 (0.7%) n (%) | TEAE incidence: Fall (LMTM 8 mg/day (N = 860), All): 90 (10.5%) n (%) | TEAE incidence: Fatigue (LMTM 8 mg/day (N = 860), All): 26 (3.0%) n (%) | TEAE incidence: Folate deficiency (LMTM 8 mg/day (N = 860), All): 17 (2.0%) n (%) | TEAE incidence: Haemoglobin decreased (LMTM 8 mg/day (N = 860), All): 6 (0.7%) n (%) | TEAE incidence: Hallucination (LMTM 8 mg/day (N = 860), All): 13 (1.5%) n (%) | TEAE incidence: Headache (LMTM 8 mg/day (N = 860), All): 55 (6.4%) n (%) | TEAE incidence: Hypertension (LMTM 8 mg/day (N = 860), All): 20 (2.3%) n (%) | TEAE incidence: Insomnia (LMTM 8 mg/day (N = 860), All): 29 (3.4%) n (%) | TEAE incidence: Laceration (LMTM 8 mg/day (N = 860), All): 17 (2.0%) n (%) | TEAE incidence: Micturition urgency (LMTM 8 mg/day (N = 860), All): 11 (1.3%) n (%) | TEAE incidence: Nasopharyngitis (LMTM 8 mg/day (N = 860), All): 40 (4.7%) n (%) | TEAE incidence: Nausea (LMTM 8 mg/day (N = 860), All): 39 (4.5%) n (%) | TEAE incidence: Oedema peripheral (LMTM 8 mg/day (N = 860), All): 19 (2.2%) n (%) | TEAE incidence: Pain in extremity (LMTM 8 mg/day (N = 860), All): 19 (2.2%) n (%) | TEAE incidence: Pollakiuria (LMTM 8 mg/day (N = 860), All): 19 (2.2%) n (%) | TEAE incidence: Rash (LMTM 8 mg/day (N = 860), All): 21 (2.4%) n (%) | TEAE incidence: Suicidal ideation (LMTM 8 mg/day (N = 860), All): 27 (3.1%) n (%) | TEAE incidence: Syncope (LMTM 8 mg/day (N = 860), All): 26 (3.0%) n (%) | TEAE incidence: Tremor (LMTM 8 mg/day (N = 860), All): 20 (2.3%) n (%) | TEAE incidence: Upper respiratory tract infection (LMTM 8 mg/day (N = 860), All): 35 (4.1%) n (%) | TEAE incidence: Urinary incontinence (LMTM 8 mg/day (N = 860), All): 34 (4.0%) n (%) | TEAE incidence: Urinary tract infection (LMTM 8 mg/day (N = 860), All): 76 (8.8%) n (%) | TEAE incidence: Vitamin B12 decreased (LMTM 8 mg/day (N = 860), All): 23 (2.7%) n (%) | TEAE incidence: Vomiting (LMTM 8 mg/day (N = 860), All): 20 (2.3%) n (%) | TEAE incidence: Weight decreased (LMTM 8 mg/day (N = 860), All): 18 (2.1%) n (%) | No. (%) of Subjects Reporting at Least One TEAE [1]: 86 (10.0%) n (%) | TEAE incidence: Abdominal pain [1]: 1 (0.1%) n (%) | TEAE incidence: Abdominal pain upper [1]: 1 (0.1%) n (%) | TEAE incidence: Agitation [1]: 1 (0.1%) n (%) | TEAE incidence: Anaemia [1]: 1 (0.1%) n (%) | TEAE incidence: Anxiety [1]: 0 n (%) | TEAE incidence: Arthralgia [1]: 0 n (%) | TEAE incidence: Atrial fibrillation [1]: 3 (0.3%) n (%) | TEAE incidence: Back pain [1]: 1 (0.1%) n (%) | TEAE incidence: Blood creatine phosphokinase increased [1]: 0 n (%) | TEAE incidence: Blood folate decreased [1]: 0 n (%) | TEAE incidence: Bronchitis [1]: 0 n (%) | TEAE incidence: Cerebral microhaemorrhage [1]: 0 n (%) | TEAE incidence: Confusional state [1]: 2 (0.2%) n (%) | TEAE incidence: Constipation [1]: 2 (0.2%) n (%) | TEAE incidence: Contusion [1]: 0 n (%) | TEAE incidence: Cough [1]: 0 n (%) | TEAE incidence: Decreased appetite [1]: 0 n (%) | TEAE incidence: Dehydration [1]: 4 (0.5%) n (%) | TEAE incidence: Depression [1]: 0 n (%) | TEAE incidence: Diarrhoea [1]: 5 (0.6%) n (%) | TEAE incidence: Dizziness [1]: 3 (0.3%) n (%) | TEAE incidence: Dysuria [1]: 0 n (%) | TEAE incidence: Fall [1]: 4 (0.5%) n (%) | TEAE incidence: Fatigue [1]: 0 n (%) | TEAE incidence: Folate deficiency [1]: 0 n (%) | TEAE incidence: Haemoglobin decreased [1]: 0 n (%) | TEAE incidence: Hallucination [1]: 0 n (%) | TEAE incidence: Headache [1]: 1 (0.1%) n (%) | TEAE incidence: Hypertension [1]: 0 n (%) | TEAE incidence: Insomnia [1]: 0 n (%) | TEAE incidence: Laceration [1]: 0 n (%) | TEAE incidence: Micturition urgency [1]: 0 n (%) | TEAE incidence: Nasopharyngitis [1]: 0 n (%) | TEAE incidence: Nausea [1]: 1 (0.1%) n (%) | TEAE incidence: Oedema peripheral [1]: 0 n (%) | TEAE incidence: Pain in extremity [1]: 1 (0.1%) n (%) | TEAE incidence: Pollakiuria [1]: 0 n (%) | TEAE incidence: Rash [1]: 0 n (%) | TEAE incidence: Suicidal ideation [1]: 2 (0.2%) n (%) | TEAE incidence: Syncope [1]: 1 (0.1%) n (%) | TEAE incidence: Tremor [1]: 0 n (%) | TEAE incidence: Upper respiratory tract infection [1]: 0 n (%) | TEAE incidence: Urinary incontinence [1]: 0 n (%) | TEAE incidence: Urinary tract infection [1]: 1 (0.1%) n (%) | TEAE incidence: Vitamin B12 decreased [1]: 0 n (%) | TEAE incidence: Vomiting [1]: 0 n (%) | TEAE incidence: Weight decreased [1]: 0 n (%) | Grouped TEAE incidence: Falls and Related Terms [2]: 22% | Grouped TEAE incidence: GI events [2]: 21% | Grouped TEAE incidence: Renal and Urinary Disorders (Including Infections) [2]: 16% | Grouped TEAE incidence: behavioural symptoms [2]: 13% | Grouped TEAE incidence: terms indicative of anaemia [2]: 13%
